{"source": "patent US9511010B2", "about": "“Compounds useful in the treatment and/or care of the skin, hair and/or mucous membranes and their cosmetic or pharmaceutical compositions” (Lubrizol Advanced Materials, Inc., priority 2012, dated 2016)", "key": {"FOXO response elements": {"tested_on": "FOXO response elements", "assay": "Stimulation of the expression of proteins regulated by FOXO: luciferase reporter under FOXO response elements", "type": "cell-based, human", "conditions": "0.5 mg/mL, 24 hours; carrier (0.05% DMSO) = 100", "method": "The activation capacity of the FOXO response elements was evaluated in a human epithelial cell line stably transfected with the luciferase gene under the control of a regulatory sequence which contains different FOXO response elements which are in the promoters of the FOXO target genes. The activation capacity of the FOXO response elements indicates the expression of proteins regulated by FOXO. 30,000 cells per well were seeded in a total volume of 100 μL of RPMI 1640 culture medium. After 24 hours the cells with RPMI 1640 culture medium were washed and were incubated with the compounds of the invention at 0.5 mg/mL for 24 hours in a total volume of 100 μL per well. The carrier in which the compounds of the invention were dissolved was used (0.05% DMSO) as a negative control.\nThe measurement of the activity of the promoter was carried out using the Steady-Go Luciferase Assay System kit following the manufacturer's instructions. The luminescence values (RLU/sec) caused by the reaction between luciferase and the substrate were quantified with a luminometer and normalized by the cell number (absorbance at 630 nm), and the activity of the promoter was determined, which was standardized with regard to the negative control values.\n(§1) Each experiment was carried out three times in 3 independent experiments."}, "[1]": {"tested_on": "HEKa primary keratinocytes", "assay": "Host cell reactivation (HCR) assay, activation of DNA repair in primary keratinocytes", "type": "cell-based, human", "conditions": "24 hours, basal = 100", "method": "The host cell reactivation (HCR) assay was used in HEKa primary keratinocytes to evaluate the capacity of the peptides of the invention to repair the damage to the DNA in a biologically functional way. 40,000 cells per well were seeded and they were co-transfected with a control plasmid which constitutively expresses the Firefly luciferase gene (pGL3), previously damaged by UVC, and with an undamaged plasmid which constitutively expresses the Renilla luciferase gene (vector pRluc-N1(h)).\nSubsequently the cells were incubated with the compounds of the invention at 0.025 mg/mL and 0.5 mg/mL in EpiLife medium for 24 hours, after which the luminescence due to the activity of the Firefly and Renilla luciferases was measured using the Dual-Go Luciferase Assay System kit following the manufacturer's instructions. The carrier in which the compounds of the invention (EpiLife medium) were dissolved was used as a negative control. The activation percentage of the DNA repair for each sample was calculated standardizing the luminescence values of the Firefly luciferase with regard to the Renilla luciferase, subsequently standardizing with regard to the values of the negative control.\nas §1"}, "HDFa cells": {"tested_on": "HDFa cells", "assay": "Photo repair effectiveness in human fibroblasts (Neutral Red viability, treatment after irradiation)", "type": "cell-based", "conditions": "for Cell viability: irradiated control 63.06%; for Effectiveness Photo-repair (%): irradiated", "method": "HDFa cells were put in culture medium for 24 hours in 96-well plates to form monolayers at 37° C. and humidified air with 5% CO2. Afterwards the culture medium was changed for D-PBS and the cells were irradiated with a solar simulation lamp at ˜40 J/cm^2 for 180 min at room temperature. A control plate was kept in the dark for the same time at room temperature.\nAfterwards 0.5 mg/mL, 0.1 mg/mL, 0.01 mg/mL of Ac-L-Tyr-L-Glu-L-Lys-L-Leu-L-Gln-L-Val-NH2 (Ac-SEQ ID NO:22-NH2) in culture medium or culture medium alone (control) were added to the cells and they were incubated for 24 hours in darkness at 37° C. and humidified air with 5% CO2.\nThe cell viability was determined with the Neutral Red dye, measuring the absorbency at 540 nm in a spectrophotometer.\nThe photorepair effectiveness was determined by comparing the viability obtained in cells treated with Ac-L-Tyr-L-Glu-L-Lys-L-Leu-L-Gln-L-Val-N H2 (Ac-SEQ ID NO:22-NH2) with the irradiated and non-irradiated control cell response."}}}
{"substance": "Ac-YEKLQV-NH2 [Ac-SEQ ID NO: 22-NH2, Ac-L-Tyr-L-Glu-L-Lys-L-Leu-L-Gln-L-Val-NH2]", "values": [{"measurement": "Stimulation Average (%) of the activation of the FOXO response factors", "setting": "FOXO response elements", "value": 186, "unit": "%"}, {"measurement": "Activation Average (%) of DNA repair, HCR assay", "setting": "[1]; 0.025 mg/mL", "value": 203, "unit": "%"}, {"measurement": "Activation Average (%) of DNA repair, HCR assay", "setting": "[1]; 0.5 mg/mL", "value": 272, "unit": "%"}, {"measurement": "Cell viability", "setting": "HDFa cells; 0.01 mg/mL for 24 hours after irradiation ~40 J/cm^2", "value": 71.99, "unit": "%"}, {"measurement": "Effectiveness Photo-repair (%)", "setting": "HDFa cells; 0.01 mg/mL", "value": 14.16, "unit": "%"}, {"measurement": "Cell viability", "setting": "HDFa cells; 0.1 mg/mL for 24 hours after irradiation ~40 J/cm^2", "value": 70.71, "unit": "%"}, {"measurement": "Effectiveness Photo-repair (%)", "setting": "HDFa cells; 0.1 mg/mL", "value": 12.13, "unit": "%"}, {"measurement": "Cell viability", "setting": "HDFa cells; 0.5 mg/mL for 24 hours after irradiation ~40 J/cm^2", "value": 71.40, "unit": "%"}, {"measurement": "Effectiveness Photo-repair (%)", "setting": "HDFa cells; 0.5 mg/mL", "value": 13.23, "unit": "%"}]}
